The values that follow come from PMC4782136 (Scientific Reports, 2016).

Where two headings read alike, the source gives them in different places. Residues, ends and D or L forms follow the SMILES beside them. *: point of attachment. Arachidoyl = CCCCCCCCCCCCCCCCCCCC(=O)*; Stearoyl = CCCCCCCCCCCCCCCCCC(=O)*; Palmitoyl = CCCCCCCCCCCCCCCC(=O)* A value given as a limit tells only on which side of the number the result lay.

Data set [1] deals with influenza A/Puerto Rico/8/34 (H1N1). The settings on record: /Puerto Rico/8/34, 24 h.
A further data set in a line: in vitro. The settings on record: dog.
The test system of a further data set is influenza B virus. Briefly: microbe, parasite or virus in culture. In kind it is cell-based. The settings on record: read-out: IC50 ± SD, B.
The test system of data set [2] is clinical isolate 690 (H3 subtype). Briefly: microbe, parasite or virus in culture. In kind it is cell-based. Particulars: Influenza A virus, read-out: IC50 ± SD, H3 (690).
In data set [3] the test system is influenza A/Aichi/2/68 (H3N2). Briefly: microbe, parasite or virus in culture. The data set is classed as cell-based. Particulars: H3N2, read-out: IC50 ± SD, H3N2.
Data set [4] relates to clinical isolate 699 (H3 subtype). Briefly: microbe, parasite or virus in culture. Particulars: Influenza A virus, read-out: IC50 ± SD, H3 (699). The data set is classed as cell-based.
Data set [5] has as its system influenza A/Puerto Rico/8/34 (H1N1). Nature of the data set: microbe, parasite or virus in culture. Particulars: H1N1, MDCK, read-out: IC50 ± SD.

Take `CCCCCCCCCCCCCCCC(=O)N[C@@H](C)C(=O)N[C@@H](CCCNC(=N)N)C(=O)N[C@@H](CC(C)C)C(=O)N1CCC[C@H]1C(=O)N[C@@H](CCCNC(=N)N)C(=O)N[C@@H](CCCCN)C(=O)N[C@@H](CCCCN)C(=O)N[C@@H](Cc1c[nH]c2ccccc12)C(=O)N[C@@H](CCCCN)C(N)=O` [C16-Jp-Hp, C16-ARLPRKKWK] (Palmitoyl-ARLPRKKWK-NH2): it took 1.29 ± 0.4 µM to reach half-maximal inhibition in data set [1] (IC50). In addition, the CC50 at 48 h in the data set “in vitro” is above 200 µM.

As for `NC(=O)c1ncn([C@@H]2O[C@H](CO)[C@@H](O)[C@H]2O)n1` [Ribavirin, ribavirin], the IC50 (as a rule, the concentration that gives 50% inhibition) stood at 6.71 ± 0.93 µM with influenza B virus; 8.47 ± 3.01 µM in data set [2]; 24.9 ± 1.1 µM in data set [3]; 4.92 ± 1.45 µM in data set [4]; 12.85 ± 0.08 µM in data set [5].

As to `CCCCCCCCCCCCCCCCCCCC(=O)N[C@@H](C)C(=O)N[C@@H](CCCNC(=N)N)C(=O)N[C@@H](CC(C)C)C(=O)N1CCC[C@H]1C(=O)N[C@@H](CCCNC(=N)N)C(=O)NCC(=O)NCC(=O)NCC(=O)N[C@@H](CCCCN)C(=O)N[C@@H](CCCCN)C(=O)N[C@@H](Cc1c[nH]c2ccccc12)C(=O)N[C@@H](CCCCN)C(N)=O` [C20-Jp-GGG-Hp, C20-ARLPRGGGKKWK] (Arachidoyl-ARLPRGGGKKWK-NH2), the CC50 was above 200 µM. In data set [1], this molecule showed an IC50 of 4.04 ± 0.02 µM.

In turn, `CCCCCCCCCCCCCCCCCCCC(=O)N[C@@H](CCCCN)C(=O)N[C@@H](CCCCN)C(=O)N[C@@H](Cc1c[nH]c2ccccc12)C(=O)N[C@@H](CCCCN)C(=O)NCC(=O)NCC(=O)NCC(=O)N[C@@H](C)C(=O)N[C@@H](CCCNC(=N)N)C(=O)N[C@@H](CC(C)C)C(=O)N1CCC[C@H]1C(=O)N[C@@H](CCCNC(=N)N)C(N)=O` [C20-Hp-GGG-Jp, C20-KKWKGGGARLPR] (Arachidoyl-KKWKGGGARLPR-NH2) yielded a CC50 above 200 µM. Moreover, inhibition in data set [1] was half-maximal at 5.22 ± 0.37 µM (IC50).

`CCCCCCCCCCCCCCCC(=O)N[C@@H](CCCCN)C(=O)N[C@@H](CCCCN)C(=O)N[C@@H](Cc1c[nH]c2ccccc12)C(=O)N[C@@H](CCCCN)C(=O)NCC(=O)NCC(=O)NCC(=O)N[C@@H](C)C(=O)N[C@@H](CCCNC(=N)N)C(=O)N[C@@H](CC(C)C)C(=O)N1CCC[C@H]1C(=O)N[C@@H](CCCNC(=N)N)C(N)=O` [C16-Hp-GGG-Jp, C16-KKWKGGGARLPR] (Palmitoyl-KKWKGGGARLPR-NH2): the 50% inhibitory concentration (IC50) in data set [1] amounted to 8.05 ± 0.52 µM. For the same molecule, the CC50 at 48 h in the data set “in vitro” is above 200 µM.

`CCCCCCCCCCCCCCCC(=O)N[C@@H](C)C(=O)N[C@@H](CCCNC(=N)N)C(=O)N[C@@H](CC(C)C)C(=O)N1CCC[C@H]1C(=O)N[C@@H](CCCNC(=N)N)C(=O)NCC(=O)NCC(=O)NCC(=O)N[C@@H](CCCCN)C(=O)N[C@@H](CCCCN)C(=O)N[C@@H](Cc1c[nH]c2ccccc12)C(=O)N[C@@H](CCCCN)C(N)=O` [C16-Jp-GGG-Hp, C16-ARLPRGGGKKWK] (Palmitoyl-ARLPRGGGKKWK-NH2) came in with an IC50 in data set [1] of 6.79 ± 0.17 µM. The CC50 at 48 h in the data set “in vitro” was above 200 µM.

Molecule `CCCCCCCCCCCCCCCCCC(=O)N[C@@H](C)C(=O)N[C@@H](CCCNC(=N)N)C(=O)N[C@@H](CC(C)C)C(=O)N1CCC[C@H]1C(=O)N[C@@H](CCCNC(=N)N)C(=O)NCC(=O)NCC(=O)NCC(=O)N[C@@H](CCCCN)C(=O)N[C@@H](CCCCN)C(=O)N[C@@H](Cc1c[nH]c2ccccc12)C(=O)N[C@@H](CCCCN)C(N)=O` [C18-Jp-GGG-Hp, C18-ARLPRGGGKKWK] (Stearoyl-ARLPRGGGKKWK-NH2) displayed an IC50 in data set [1] of 5.09 ± 0.35 µM. Besides, the CC50 at 48 h in the data set “in vitro” is above 200 µM.

In turn, `CCCCCCCCCCCCCCCC(=O)N[C@@H](CCCCN)C(=O)N[C@@H](CCCCN)C(=O)N[C@@H](Cc1c[nH]c2ccccc12)C(=O)N[C@@H](CCCCN)C(=O)N[C@@H](C)C(=O)N[C@@H](CCCNC(=N)N)C(=O)N[C@@H](CC(C)C)C(=O)N1CCC[C@H]1C(=O)N[C@@H](CCCNC(=N)N)C(N)=O` [C16-Hp-Jp, C16-KKWKARLPR] (Palmitoyl-KKWKARLPR-NH2) returned an IC50 in data set [1] of 2.48 ± 0.24 µM. In “in vitro”, this molecule came in with a CC50 at 48 h above 200 µM.

As to `CCCCCCCCCCCCCCCCCC(=O)N[C@@H](CCCCN)C(=O)N[C@@H](CCCCN)C(=O)N[C@@H](Cc1c[nH]c2ccccc12)C(=O)N[C@@H](CCCCN)C(=O)NCC(=O)NCC(=O)NCC(=O)N[C@@H](C)C(=O)N[C@@H](CCCNC(=N)N)C(=O)N[C@@H](CC(C)C)C(=O)N1CCC[C@H]1C(=O)N[C@@H](CCCNC(=N)N)C(N)=O` [C18-Hp-GGG-Jp, C18-KKWKGGGARLPR] (Stearoyl-KKWKGGGARLPR-NH2), in data set [1], the IC50 is 6.99 ± 2 µM. The molecule also yielded a CC50 at 48 h in the data set “in vitro” above 200 µM.
